Results as given in US20020026052A1, “3-cyanoquinolines, 3-cyano-1,6-naphthyridines, and 3-cyano-1,7-naphthyridines as protein kinase inhibitors” (American Home Products Corporation, priority 2000, published 2002).
Where “and” joins values, the source holds several entries; their conditions need not be identical. Equal entries are not always repeated.

Tests used:
[1] = target: Rat2 fibroblasts stably transformed with v-Src/Hu c-Src fusion gene (Homo sapiens, UniProt P12931, cells depend on it, form not given); test: Anchorage Independent Src-transformed Fibroblast Proliferation Assay; type: cell-based, Rat; details: suspension growth, MTS reagent on Day 5; read-out: anch-indep src-tx fib IC50
Experimental: Anchorage Independent Src-transformed Fibroblast Proliferation Assay
Rat2 fibroblasts stably transformed with a plasmid containing a CMV promotor controlled v-Src/Hu c-Src fusion gene in which the catalytic domain of human c-Src was inserted in place of the v-Src catalytic domain in the v-Src gene are used for the measurement of src dependent suspension growth. […] Multiple entries for a given compound indicate that it was tested multiple times.

Chain of Rat2 fibroblasts stably transformed with v-Src/Hu c-Src fusion gene (P12931 whole entry, change not shown, the tested form may be a part): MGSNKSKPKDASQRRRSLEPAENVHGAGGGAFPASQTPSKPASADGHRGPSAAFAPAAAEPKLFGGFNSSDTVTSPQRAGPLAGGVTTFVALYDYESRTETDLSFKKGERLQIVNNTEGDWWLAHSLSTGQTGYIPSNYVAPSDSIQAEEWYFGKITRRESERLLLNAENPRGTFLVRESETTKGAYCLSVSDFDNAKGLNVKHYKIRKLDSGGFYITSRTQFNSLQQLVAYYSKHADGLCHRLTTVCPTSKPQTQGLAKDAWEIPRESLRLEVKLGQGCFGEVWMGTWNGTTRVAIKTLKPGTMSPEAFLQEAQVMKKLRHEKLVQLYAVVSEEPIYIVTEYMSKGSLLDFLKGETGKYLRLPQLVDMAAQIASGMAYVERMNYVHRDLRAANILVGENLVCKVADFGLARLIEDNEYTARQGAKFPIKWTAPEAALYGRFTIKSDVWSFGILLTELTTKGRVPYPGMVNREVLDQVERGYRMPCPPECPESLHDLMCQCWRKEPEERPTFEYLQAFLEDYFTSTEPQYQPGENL

Row | Structure (SMILES) | GI50 [1] | melting point
1 | COc1cc(Nc2c(C#N)cnc3cc(-c4ccc(CCCCN5CCOCC5)s4)ccc23)c(Cl)cc1Cl [Example 22, 4-(2,4-Dichloro-5-methoxyanilino)-7-{5-[4-(4-morpholinyl)butyl]-2-thienyl}-3-quinolinecarbonitrile] | 600 nM | 188 °C (dec.)
2 | N#Cc1cnc2cc(-c3csc(CN4CCOCC4)c3)ccc2c1Nc1ccc(Cl)cc1Cl [Example 25, 4-(2,4-Dichloroanilino)-7-[5-(4-morpholinylmethyl)-3-thienyl]-3-quinolinecarbonitrile] | 1300 nM and 930 nM | 203 to 205 °C
3 | COc1cc(Nc2c(C#N)cnc3cc(-c4csc(CN5CCOCC5)c4)c(OC)cc23)c(Cl)cc1Cl [Example 36, 4-(2,4-Dichloro-5-methoxyanilino)-6-methoxy-7-[5-(4-morpholinylmethyl)-3-thienyl]-3-quinolinecarbonitrile] | 160 nM and 200 nM | 148 to 150 °C
4 | COc1cc(Nc2c(C#N)cnc3cc(-c4ccc(CN5CCC[C@@H]5C(N)=O)o4)ccc23)c(Cl)cc1Cl [Example 47, (2 R)-1-({5-[3-cyano-4-(2,4-dichloro-5-methoxyanilino)-7-quinolinyl]-2-furyl}methyl)-2-pyrrolidinecarboxamide] | 1170 nM | 121 to 126 °C
5 | COc1cc(Nc2c(C#N)cnc3cc(-c4ccc(C5OCCO5)s4)ccc23)c(Cl)cc1Cl [Example 51, 4-(2,4-dichloro-5-methoxyanilino)-7-[5-(1,3-dioxolan-2-yl)-2-thienyl]-3-quinolinecarbonitrile] | 420 nM | 174 to 177 °C (dec.)
6 | COc1cc(Nc2c(C#N)cnc3cc(-c4ccc(CN5CCOCC5)o4)ccc23)c(Cl)cc1Cl [Example 53, 4-(2,4-Dichloro-5-methoxyanilino)-7-[5-(4-morpholinylmethyl)-2-furyl]-3-quinolinecarbonitrile] | 250 nM | 182 to 183 °C
7 | COc1ccc(/C=C/c2ccc3c(Nc4cc(OC)c(Cl)cc4Cl)c(C#N)cnc3c2)cc1 [Example 54, 4-(2,4-Dichloro-5-methoxyanilino)-7-[(E)-2-(4-methoxyphenyl)ethenyl]-3-quinolinecarbonitrile] | > 10000 nM | 216 to 220 °C
8 | COc1cc(Nc2c(C#N)cnc3cc(-c4ccc(CNCCS(=O)(=O)c5ccccc5)o4)ccc23)c(Cl)cc1Cl [Example 58, 4-(2,4-Dichloro-5-methoxyanilino)-7-[5-({[2-(phenylsulfonyl)ethyl]amino}methyl)-2-furyl]-3-quinolinecarbonitrile] | 5100 nM | 123 to 128 °C
9 | COc1cc(Nc2c(C#N)cnc3cc(-c4cncn4CCN4CCOCC4)ccc23)c(Cl)cc1Cl [Example 64, 4-(2,4-Dichloro-5-methoxyanilino)-7-{1-[2-(4-morpholinyl)ethyl]-lH-imidazol-5-yl}-3-quinolinecarbonitrile] | > 10000 nM | 150 °C (dec.)
10 | COc1cc(Nc2c(C#N)cnc3cc(-c4ccc(CN5CCOCC5)n4C)ccc23)c(Cl)cc1Cl [Example 70, 4-(2,4-Dichloro-5-methoxyanilino)-7-[1-methyl-5-(4-morpholinylmethyl)-1H-pyrrol-2-yl]-3-quinolinecarbonitrile] | 6000 nM | 208 to 210 °C
11 | COc1cc(Nc2c(C#N)cnc3cc(-c4ccc(CN5CCN(C)CC5)n4C)ccc23)c(Cl)cc1Cl [Example 71, 4-(2,4-Dichloro-5-methoxyanilino)-7-{1-methyl-5-[(4-methyl-1-piperazinyl)methyl]-1H-pyrrol-2-yl}-3-quinolinecarbonitrile] | 6800 nM | 200 °C (dec.)
12 | COc1cc(Nc2c(C#N)cnc3cc(-c4ccc(CNCCS(C)(=O)=O)n4C)ccc23)c(Cl)cc1Cl [Example 73, 4-(2,4-dichloro-5-methoxyanilino)-7-[1-methyl-5-({[2-(methylsulfonyl)ethyl]amino}-methyl)-1H-pyrrol-2-yl]-3-quinolinecarbonitrile] | > 10000 nM | 160 to 164 °C
13 | COc1cc(Nc2c(C#N)cnc3cc(-c4ccc(CN5CCN(CCO)CC5)o4)ccc23)c(Cl)cc1Cl [Example 75, 4-(2,4-Dichloro-5-methoxyanilino)-7-(5-{[4-(2-hydroxyethyl)-1-piperazinyl]methyl}-2-furyl)-3-quinolinecarbonitrile] | 290 nM | 176 to 181 °C
14 | COc1cc(Nc2c(C#N)cnc3cc(-c4ccc(CN(CCO)CCO)o4)ccc23)c(Cl)cc1Cl [Example 76, 7-(5-{[Bis(2-hydroxyethyl)amino]methyl}-2-furyl)-4-(2,4-dichloro-5-methoxyanilino)-3-quinolinecarbonitrile] | 1100 nM | 155 to 160 °C
15 | COc1cc(Nc2c(C#N)cnc3cc(-c4ccc(CNCCS(C)(=O)=O)o4)ccc23)c(Cl)cc1Cl [Example 77, 4-(2,4-Dichloro-5-methoxyanilino)-7-[5-({[2-(methylsulfonyl)ethyl]amino}methyl)-2-furyl]-3-quinolinecarbonitrile] | 420 nM | 171 to 174 °C
16 | COc1cc(Nc2c(C#N)cnc3cc(-c4csc(CN5CCOCC5)c4)ccc23)c(Cl)cc1F [Example 79, 4-{2-Chloro-4-fluoro-5-methoxyanilino)-7-[5-(4-morpholinylmethyl)-3-thienyl]-3-quinolinecarbonitrile] | 130 nM | 185 to 187 °C
17 | COc1cc(Nc2c(C#N)cnc3cc(-c4csc(CN5CCOCC5)c4)ccc23)c(Cl)cc1C [Example 80, 4-(2-chloro-5-methoxy-4-methylanilino)-7-[5-(4-morpholinylmethyl)-3-thienyl]-3-quinolinecarbonitrile] | 80 nM | 168 to 170 °C
18 | COc1cc(Nc2c(C#N)cnc3cc(-c4cc(CN5CCOCC5)c(CN5CCOCC5)s4)c(OC)cc23)c(Cl)cc1Cl [Example 82, 7-[4,5-Bis(4-morpholinylmethyl)-2-thienyl]-4-(2,4-dichloro-5-methoxyanilino)-6-methoxy-3-quinolinecarbonitrile] | 50 nM | 120 to 124 °C
19 | COc1ccc(C#Cc2ccc3c(Nc4cc(OC)c(Cl)cc4Cl)c(C#N)cnc3c2)cc1 [Example 90, 4-(2,4-dichloro-5-methoxyanilino)-7-[2-(4-methoxyphenyl)ethynyl]-3-quinolinecarbonitrile] | > 10000 nM | 225 to 226 °C
20 | COc1cc(Nc2c(C#N)cnc3cc(-n4cccc4)ccc23)c(Cl)cc1Cl [Example 92, 4-(2,4-Dichloro-5-methoxyanilino)-7-pyrrol-1-yl-3-quinolinecarbonitrile] | 2110 nM | 205 to 207 °C

Further lines, results first:

Row | GI50 [1] | melting point | Structure (SMILES)
21 | 110 nM | 235 to 237 °C | COc1cc(Nc2c(C#N)cnc3cc(-c4ccc(N5CCOCC5)cc4)ccc23)c(Cl)cc1Cl [Example 67, 4-(2,4-Dichloro-5-methoxyanilino)-7-[4-(4-morpholinyl)phenyl]-3-quinolinecarbonitrile]
22 | > 10000 nM | 200 °C (dec.) | COc1cc(Nc2c(C#N)cnc3cc(-c4ccc(C=O)n4C)ccc23)c(Cl)cc1Cl [Example 69, 4-(2,4-Dichloro-5-methoxyanilino)-7-(5-formyl-1-methyl-1H-pyrrol-2-yl)-3-quinolinecarbonitrile]
23 | 3900 nM | 248 to 251 °C | COc1cc(Nc2c(C#N)cnc3cc(-c4ccc(C=O)cc4)ccc23)c(Cl)cc1Cl [Example 83, 4-(2,4-dichloro-5-methoxyanilino)-7-(4-formylphenyl)-3-quinolinecarbonitrile]
24 | 770 nM | 180 to 182 °C | COc1cc(Nc2c(C#N)cnc3cc(-c4ccc(CN5CCC[C@@H]5C(N)=O)cc4)ccc23)c(Cl)cc1Cl [Example 84, (2 R)-1-{4-[3-cyano-4-(2,4-dichloro-5-methoxyanilino)-7-quinolinyl]benzyl}-2-pyrrolidinecarboxamide]
25 | 10200 nM | 198 to 201 °C | COc1cc(Nc2c(C#N)cnc3cc(-c4ccc(CNCCS(=O)(=O)c5ccccc5)cc4)ccc23)c(Cl)cc1Cl [Example 85, 4-(2,4-dichloro-5-methoxyanilino)-7-[4-({[2-(phenylsulfonyl)ethyl)amino}methyl)phenyl]-3-quinolinecarbonitrile]
26 | 210 nM | 187 to 189 °C | COc1cc(Nc2c(C#N)cnc3cc(-c4ccc(CN(C)C)cc4)ccc23)c(Cl)cc1Cl [Example 86, 4-(2,4-dichloro-5-methoxyanilino)-7-{4-[(dimethylamino)methyl]phenyl}-3-quinolinecarbonitrile]
27 | 220 nM | 191 to 195 °C | CCN(CC)Cc1ccc(-c2ccc3c(Nc4cc(OC)c(Cl)cc4Cl)c(C#N)cnc3c2)cc1 [Example 87, 4-(2,4-Dichloro-5-methoxyanilino)-7-{4-[(diethylamino)methyl]phenyl}-3-quinolinecarbonitrile]
28 | 850 nM | 245 to 246 °C | COc1cc(Nc2c(C#N)cnc3cc(-c4ccc(CNCCS(C)(=O)=O)cc4)ccc23)c(Cl)cc1Cl [Example 88, 4-(2,4-dichloro-5-methoxyanilino)-7-[4-({[2-(methylsulfonyl)ethyl]amino}methyl)phenyl]-3-quinolinecarbonitrile]
29 | > 10000 nM | 264 to 267 °C | COc1cc(Nc2c(C#N)cnc3cc(-c4ccc(CO)cc4)ccc23)c(Cl)cc1Cl [Example 101, 4-(2,4-Dichloro-5-methoxyanilino)-7-[4-(hydroxymethyl)phenyl]-3-quinolinecarbonitrile]
30 | 7500 nM | 236 to 239 °C | COc1cc(Nc2c(C#N)cnc3cc(-c4ccc(CCl)cc4)ccc23)c(Cl)cc1Cl [Example 102, 7-[4-(Chloromethyl)phenyl]-4-(2,4-dichloro-5-methoxyanilino)-3-quinolinecarbonitrile]
